We go through 5 compounds from patent US10539552B2, “Compositions and methods for measuring cellular mechanical stress” (The Regents of the University of California, priority 2014, dated 2020).

Test [1] concerns the target T1, CaMKII (Rattus norvegicus, UniProt P11275).
T1 construct: Camui comprises of full length CaMKII with a CFP/YFP pair on either end of the kinase; expressed in transfected cells; host or cells: HEK293 (lysate, cytosolic fraction)
Briefly: In vitro CaMKII activity measurement with Camui FRET sensor in HEK cell lysates. The class given is biochemical. On the procedure: (§1) In Vitro CaMKII activity measurements with Camui sensor. Design and synthesis of the wild-type, phosphorylation resistant, and oxidation resistant Camui constructs were previously described. HEK293 cells were cultured in Eagle's medium plus 5% fetal bovine serum and penicillin/streptomycin for 24 hour and then transfected with plasmids encoding Camui (or a mutant isoform) using a mammalian transfection kit (Stratagene). After an additional 24 hour, Camui expression was checked by fluorescence microscopy. HEK cells expressing Camui were lysed in Ca^2+-free buffer containing 50 mM Tris-HCl buffer (pH 7.5), 5 mM MgCl2, and protease inhibitors. Fluorescence measurements were performed using a MS SpectraMax plate reading spectrophotometer (Molecular Devices) with excitation and emission slits set to 4 nm, excitation wavelength set to 440 nm, emission wavelengths set to 477 nm (FCFP) and 527 nm (FYFP), respectively. The cytosolic fraction of the transfected HEK cells […] Camui fluorescence was measured in the presence of 10 μM CaM and 200 μM Ca^2+. EGTA 1 mM was used to chelate Ca^2+ and autonomous CaMKII activity was measured in the presence of 1 mM EGTA and either 50 μM or 500 μM SNAP.
(§2) CaMKII activity was known to be increased by auto-phosphorylation and by oxidation. Here we measure the effect of nitric oxide (NO) on CaMKII activity using the FRET-based biosensor Camui which detects conformational changes in CaMKII during activation. To determine whether NO can activate CaMKII, we expressed the CaMKII activity sensor Camui in HEK cells and measured autonomous activation induced by the NO donor SNAP. Camui comprises of full length CaMKII with a CFP/YFP pair on either end of the kinase, which produce substantial FRET in the closed (autoinhibited) state. If autoinhibition is disrupted, either directly by Ca^2+/CaM binding or autonomously by post-translational modification of the kinase, FRET is reduced, resulting in an increase in FCFP/FYFP. […] CaMKII is known to be autonomously activated by T286 phosphorylation and by CM280/281 oxidation. To test whether one or both of these mechanisms were responsible for SNAP-induced CaMKII activation, we repeated the HEK cell experiment using mutant versions of Camui lacking either the phosphorylation (T286) or oxidation (CM280/281) target sites. In both cases, SNAP dependent activation of CaMKII was preserved.

In test [2] the test system is CaMKII. The test is described as above. Type of test: biochemical. The following applies: Camui lacking phosphorylation (T286) or oxidation (CM280/281) sites. Here is the method: as §1, §2
In test [3] the test system is mouse ventricular myocytes. Briefly: Systolic Ca^2+ transient and myocyte contraction in-Gel (Fluo-4 confocal / Fura-2 ratio, sarcomere detection). Type of test: cell-based. The following applies: for peak systolic Ca^2+ transient (Fura-2 ratio), inhibitor effect: L-NPA 5 μM; for systolic Ca^2+ transient (Fluo-4 confocal): compared to load-free contraction, blebbistatin 10 μM in gel. From the text:
Mechanical load effects on the myocyte contraction and systolic Ca^2+ transient. To establish that the diastolic spontaneous Ca^2+ sparks are indeed caused by the mechanical load, we examined the Ca^2+ spark rate in the myocytes contracting under different mechanical loads as shown in FIG. 11G. We also examined the systolic Ca^2+ transient and the myocyte contraction under these conditions of varying loads.
Whole cell Ca^2+ transient measurement using Fura-2 ratiometric method. In order to more precisely measure the whole cell Ca^2+ concentration, we used Fura-2 ratiometric method (40) rather than Fluo-4 single wavelength measurement. Fura-2 loading was done by incubating the cells with 2.5 μM Fura-2/AM and 0.75 μM Pluronic-127 (in 20% DMSO) at room temperature for 30 minutes. After washing out Fura-2/AM, the cells were incubated for an additional 45 minutes, and then used for experiment within 2 hours. An IonOptix system (IonOptix Inc., USA) with a Hyperswitch and mounted on the Olympus X71 inverted microscope with a water immersion fluorescence objective UPlanSPao 40×, 1.15 NA, corrected for the thickness of the No. 1 glass coverslip. The excitation light was generated using a high intensity ARC lamp (Cairn). The Hyperswitch (galvanometer based switching between […] and 380 nm at 500 Hz frequency, using a 340/370d/380 filter cube) was used to deliver dual excitation beams at 340 nm and 380 nm, switching between the two wavelengths. Fura-2 fluorescence emission light was passed through a bandpass filter D510/40m, and then collected in a photomultiplier tube (PMT). The gain of the PMT was set to avoid any saturation and to obtain high fidelity photon count.
The Fura-2 fluorescence emission (F) from the excitation at 340 nm and 380 nm were recorded from the cell. The background fluorescence (BG) at 340 nm and 380 nm wavelengths were obtained in the solution and in the gel without cell. The BG signals were found slightly higher in the gel than in solution, but both were substantially lower than the Fura-2 fluorescence emissions from the cell. The Fura-2 fluorescence ratio, RFura, was calculated after background subtraction.
For measuring the systolic Ca^2+ transient, the cell was first paced to reach steady-state (>2 minutes), and then the Fura-2 fluorescence was recorded for at least 10 beats during steady-state. For SR content measurement, after the cell reaching steady-state the field stimulation was stopped to keep the cell at resting state for 15 seconds; then caffeine at high concentration (20 mM) was applied to rapidly deplete the SR load (FIG. 14A,B). The rapidity of the SR Ca^2+ release was accessed by the rising velocity of the caffeine-induced Ca^2+ transient, and the peak Ca^2+ value was used as an index to measure the SR load. […] Since RyR sensitivity to intra-SR [Ca^2+] is steep, we also acknowledge that small changes in SR Ca^2+ that we could not detect could have functional impact.
Myocyte contraction measurement. Contraction measurement using Fluo-4 confocal image was determined from the confocal x-t linescan by the difference in the positions of the left and right boundaries demarcated by the bright fluo-4 signal and the dimmer signal from the PVA gel or the bathing solution. Myocyte length was calculated by converting the fluorescence signal along each x into a binary vector. Fluorescence values above background plus a threshold were considered 1, otherwise 0. The numbers of “1” pixels was then multiplied by a scaling factor (determined by using a Ronchi ruling with 2.5 spacing) to get the cell shortening in microns. The threshold was set to half of the maximum calcium fluorescence.
Contraction measurement using IonOptix system (IonOptix Co., USA) with sarcomere detection was done by using a high speed camera (Myocam-S, 240 up to 1000 frame/s) the record the sarcomere movement during contraction. […]

The test system of test [4] is mouse ventricular myocytes (wild-type). Briefly: Cell-in-Gel confocal Ca^2+ spark imaging during myocyte contraction under afterload (wild-type). Type of test: cell-based. The conditions noted are these: wild-type myocytes contracting in Gel7.5%, paced 0.5 Hz, L-NAME 10 mM, L-NPA 5 μM, L-Nio 10 μM, Gp91ds 1 μM, blebbistatin 10 μM. Here is the method:
Cell isolation. Wild-type and transgenic mice, 8 weeks old male, were purchased from Jackson Laboratories (USA): C57BL/6J (wild-type), B6.129S4-Nos1tm1Plh/J (NOS1−/−), B6.129P2-Nos3tm1Unca/J (NOS3−/−). Transgenic mouse with R92Q mutation in cardiac troponin T was created in Tardiff s lab (22) and bred in Chen-Izu's lab. A standard enzymatic technique (40) was used to isolate the ventricular myocytes using Worthington collagenase type II and Sigma protease type XIV. All experiments were conducted at 21-22° C.
Cell-in-Gel system. Elastic gel matrix was made of a poly vinyl alcohol (PVA) hydrogel system comprised of underivatized PVA (98 KD) and a tetravalent boronate-PEG crosslinker (12). Freshly isolated myocytes were first suspended in 7% PVA solution; then 7.5% crosslinker solution was added in equal volume (Gel7.5%). Upon mixing, the boronate group crosslinks PVA hydrogel, embedding the cell in the 3D gel matrix. The boronate group also crosslinks the cis-diols of the cell-surface glycans to PVA, thereby tethering the cell surface to the gel. We used Gel7.5% for all the experiments in this study except one group in FIG. 11G using Gel5%.
Confocal imaging of Ca^2+ signals. Myocytes were loaded with Ca^2+ indicator, Fluo-4, and then embedded in the gel. Confocal imaging was performed using standard method (41).
For confocal imaging of the Ca^2+ signals, freshly isolated myocytes were continuously perfused in Tyrode solution containing (in mM): 150 NaCl, 5.4 KCl, 1.2MgCl2, 1 CaCl2, at pH 7.4, loaded with Ca^2+ indicator Fluo-4, and then embedded in the PVA gel. The cell was paced at 0.5 Hz frequency by electrical field stimulation using short (4 ms) depolarization pulses with bipolar switching (switch positive and negative polarity in consecutive stimulus pulses). The platinum electrodes were used in conjunction with continues perfusion of fresh Tyrode solution to maintain constant bath condition (pH, glucose, ionic composition, temperature etc.).
Confocal images were obtained using an Olympus FluoView 1000 Confocal Microscope (inverted configuration) with a water immersion fluorescence objective UPlanSApo 60X, NA1.2, corrected for the thickness of the No. 1 glass coverslip that is used at the bottom of the perfusion chamber. Fluo-4 was excited with 488 nm laser beam (laser power set to 5%), and the emitted fluorescence light was passed through a bandpass filter BA505-605 and collected with a PMT. The PMT voltage, gain, and offset were set to avoid any saturation and to obtain high fidelity images. The line-scan images were obtained using the highest scan speed of 2 μs/pixel.
Ca^2+ sparks were detected automatically using a homemade program based on our spark identification algorithm and adapted for x-t linescans. As in our 2-D program, sparks are identified in two stages. In the first stage, putative sparks are detected based on Cheng et al.'s description and bright but spatially small events were eliminated using the ‘live-or-die’ algorithm described in our previous publication. In the second stage, the putative sparks were classified as sparks or noise based on the statistical sieve as described previously in our publication. This analysis software provides automated and objective (agnostic via statistical sieving) detection and classification of the Ca^2+ signaling events. […]

Setting [5] is: myocytes contracting in-Gel, L-Nio 10 μM.

“Also recorded” adds a separate entry of the source.

T1 sequence (P11275 whole entry): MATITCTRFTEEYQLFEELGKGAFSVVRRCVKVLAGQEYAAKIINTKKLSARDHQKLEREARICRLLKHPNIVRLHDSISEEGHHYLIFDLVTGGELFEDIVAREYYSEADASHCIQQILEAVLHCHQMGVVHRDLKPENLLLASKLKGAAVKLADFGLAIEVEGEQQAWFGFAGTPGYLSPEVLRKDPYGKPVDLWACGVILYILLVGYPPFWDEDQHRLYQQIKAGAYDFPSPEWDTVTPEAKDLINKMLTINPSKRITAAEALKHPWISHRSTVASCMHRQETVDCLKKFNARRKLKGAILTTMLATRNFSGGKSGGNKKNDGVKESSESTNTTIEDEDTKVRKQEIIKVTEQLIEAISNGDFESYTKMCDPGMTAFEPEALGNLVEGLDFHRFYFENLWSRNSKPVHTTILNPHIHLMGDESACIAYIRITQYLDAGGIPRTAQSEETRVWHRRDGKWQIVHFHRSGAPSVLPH

Take `CC(=O)N[C@@H](C(=O)O)C(C)(C)SN=O` (racemic) [SNAP]: the “autonomous CaMKII activation (FCFP/FYFP)” value is recorded as “no effect” in test [1] (50 μM SNAP with 1 mM EGTA, compared to EGTA only) and “significant increase in CaMKII activation; also recorded: Autonomous CaMKII activation was seen” in test [1] (500 μM SNAP with 1 mM EGTA). For the same compound, in test [1] (500 μM SNAP with EGTA), the “CaMKII activation relative to Ca^2+/CaM dependent activity” value is “about 50 % of Ca^2+/CaM dependent activity”. In test [2], the “SNAP dependent CaMKII activation in mutant Camui” value is “preserved; also recorded: not secondary to either phosphorylation (T286A) or oxidation (CM/VV)”.
For the compound `CC(N)=NCCC[C@H](N)C(=O)O.Cl.Cl` [L-Nio, L-Nio-dihydrochloride], in test [3] (setting [5]), the “peak systolic Ca^2+ transient (Fura-2 ratio), inhibitor effect” value is listed as “reduced the Ca^2+ transient” and the “Tau of the Ca^2+ transient decline” value is recorded as “slowed the speed of Ca^2+ transient decline”. For the same compound, the “afterload-induced diastolic spontaneous Ca^2+ sparks, drug effect” value in test [4] was “failed to suppress Ca^2+ sparks”.
Regarding `Cc1ccc2c(c1)C(=O)C1(O)CCN(c3ccccc3)C1=N2` (stereo not drawn) [blebbistatin], the “systolic Ca^2+ transient (Fluo-4 confocal)” value was “restored the Ca^2+ transient and spark rate to the load-free condition” in test [3]; “restored the Ca^2+ transient to the load-free condition” in test [3] (listed as Blebbistatin). Further, in test [3] (in gel versus load-free, blebbistatin 10 μM), the “myocyte contraction amplitude (fractional shortening)” value is “decoupled cell contraction from Ca^2+ signaling”. Moreover, the “afterload-induced diastolic spontaneous Ca^2+ sparks, drug effect” value is “restored the Ca^2+ transient and spark rate to the load-free condition” in test [4]; “normalization of Ca^2+ spark rate” in test [4] (listed as Blebbistatin).
As to `COC(=O)[C@@H](N)CCCNC(=N)N[N+](=O)[O-]` [L-NAME], the “afterload-induced diastolic spontaneous Ca^2+ sparks, drug effect” value in test [4] is reported as “effectively suppressed Ca^2+ sparks”.
`CCCN=C(N)NCCC[C@H](N)C(=O)O.Cl` [L-NPA, Nw-Propyl-L-arginine hydrochloride]: the “peak systolic Ca^2+ transient (Fura-2 ratio), inhibitor effect” value in test [3] (setting [5]) is given as “reduced the Ca^2+ transient”. Also, the “afterload-induced diastolic spontaneous Ca^2+ sparks, drug effect” value in test [4] was “effectively suppressed Ca^2+ sparks”.
